According to US7129208B2, “Synthetic ion channels” (Washington University, priority 2002, dated 2006):
Several values for one entry are separate records, joined by “and”; a condition that tells them apart may be missing. Identical values can stand only once. The star is where a group is joined. (C18H37)2NCOCH2OCH2CO = CCCCCCCCCCCCCCCCCCN(CCCCCCCCCCCCCCCCCC)C(=O)COCC(=O)*; OBn = c1ccc(CO*)cc1

Tests used:
[1] = Chloride release from liposomes (chloride-specific electrode); type: biochemical; conditions: for chloride release / efflux from liposomes: unilamellar liposomes 182±12 nm
Protocol: Liposomes were prepared by reverse-phase evaporation^26 as previously reported.^27 Cl^− release was determined with a resin, chloride-specific electrode. Ion transport, mediated by (C18H37)2NCOCH2OCH2CO-GGGPGGG-OCH2Ph (SEQ ID NO.: 2), was studied in unilamellar liposomes of 182±12 nm average dimension. […] Neither the anchor-GGGLGGG (SEQ ID NO.: 3) compound nor the anchor-GGG compound retains the kink believed to be present in (C18H37)2NCOCH2OCH2CO-GGGPGGG-OCH2Ph (SEQ ID NO.: 2) owing to the presence of the proline residue.
Substituting an impermeant external ion (SO4^=) for a permeant one (NO3^−) will generate a membrane potential that inhibits Cl^− release. Thus, replacing nitrate by sulfate in the aqueous medium produced a 5-fold reduction in chloride efflux (data not shown).

[2] = Voltage clamp in planar lipid bilayers; type: biochemical; conditions: for maximum conductance (chloride diffusion pathway): linear current-voltage relationship, 63 μM in b201
Protocol: The chloride selectivity of (C18H37)2NCOCH2OCH2CO-GGGPGGG-OCH2Ph (SEQ ID NO.: 2) was assessed by voltage clamp methods in planar phospholipid bilayers. Addition of (C18H37)2NCOCH2OCH2CO-GGGPGGG-OCH2Ph (SEQ ID NO.: 2) to planar bilayer lipids produced large currents within seconds in a 450:150 mM KCl ion gradient. The sign and the magnitude of this current indicated Cl^− transport by a nanoSiemen-sized channel. A linear current-voltage relationship gave a maximum conductance of 1.3±0.1 nS. The reversal potential, Erev, was 28±0.45 mV, corresponding to the calculated chloride Nernst potential, ECl, of 28.2 mV. This confirms the >10:1 Cl^−/K^+ selectivity observed in liposomes. The ion selectivity and conductivity indicate that (C18H37)2NCOCH2OCH2CO-GGGPGGG-OCH2Ph (SEQ ID NO.: 2) forms a large, stable, anion selective aqueous pore in bilayer membranes.
Planar lipid bilayers were formed by standard methods. (C18H37)2NCOCH2OCH2CO-GGGPGGG-OCH2Ph (SEQ ID NO.: 2) was applied to the cis chamber at 60 μM (micromolar) with a 450 mM/150 mM KCl gradient present across the membrane. Seconds later Cl^− currents appeared and voltage was varied from +20 to −2 mV. Fractional open time was computed using the computer programs Fetchan and pStat (Axon Instruments, CA).
The chloride selectivity of (C18H37)2NCOCH2OCH2CO-GGG-P-GGG-OCH2Ph (SEQ ID NO.: 2) was assessed by voltage clamp methods in planar lipid bilayers prepared as described in P. Schlesinger, et al., Proc. Natl. Acad. Sci. 94, 11357 (1997). The addition of 63 μM (C18H37)2NCOCH2OCH2CO-GGG-P-GGG-OCH2Ph (SEQ ID NO.: 2) produced large currents within seconds in a 450:150 mM KCl ion gradient (FIG. 8a). […] The reversal potential, Erev, was 28±0.45 mV, corresponding to the calculated chloride Nernst potential, ECl, of 28.2 mV (FIG. 8c). This confirms the >10:1 Cl^−/K^+ selectivity observed in liposomes. The ion selectivity and conductivity indicate that (C18H37)2NCOCH2OCH2CO-GGG-P-GGG-OCH2Ph (SEQ ID NO.: 2) forms a large, stable, anion selective aqueous pore in bilayer membranes.

[3] = Carboxyfluorescein fluorescence dequenching: pore activation and size, dextran block; type: biochemical
Protocol: Fluorescence dequenching was used to study pore activation and size as previously described in Saito et al. CF dequenching reflects the kinetics of pore activation and dequenching is accurately fit by this equation. Ft=F0+A1(1−e^−(t/τ))+mt
This exponential model requires that the concentration dependence of quenching will reflect the molecularity of pore activation (FIG. 9a, 9b). […] We infer therefore that at ˜100 μM, the active pore involves two molecules of (C18H37)2NCOCH2OCH2CO-GGG-P-GGG-OCH2Ph (SEQ ID NO.: 2). […] Size-specific dextran block (using ˜6–26 Å diameter molecules) confirmed an apparent pore diameter of 6.6 A (FIG. 9d, 9e) (M. Saito, S. J. Korsmeyer, P. H. Schlesinger, Nature Cell Biology, 553 (2000); S. Rex, G. Schwarz, Biochemistry37, 2336 (1998)).

[4] = Pore size from molecular models and bilayer conductance data
RAW 264.7 cells [5] = experiment: Intracellular calcium, Fura-2 fluorescence ratio method; conditions: 46 μM or 92 μM applied at time zero
Protocol: We determined cell volume from 0.5 micron image stacks collected at 30 second intervals and calculated the time-dependent volume changes that are shown in FIG. 7B. […] RAW 264.7 cells (American Type Culture Collection, Manassas Va.) were plated into microscope chambers in Dulbeccos Minimal Essential Media with antibiotics and 10% fetal calf serum and allowed to recover over night at 5% CO2. Prior to experiment they were transferred to Hanks buffered saline (10 mM HEPES, pH 7.0) and placed into the thermostated microscope stage (37° C.) and permitted to equilibrate for 10 min. Cell volume was monitored and corrected for changes in cell geometry by optical sections at 0.5 micron steps from the glass surface to the top of the cell (typically 5–7 sections). Images were collected using a Zeiss 100 M Axovert microscope, a 12-bit Sensi-Cam, and analyzed using Slidebook 3.0 (Intelligent Imaging Innovations, Inc. Cambridge, Mass.). Cell volume was calculated by summing the intracellular surface for each image in the stack of sections. […] In FIG. 7B the cellular volume changes were followed by comparing sequential series of z-stacks from optical sections and normalized to total cell volume at the beginning of the experiment (t=0). […] Intracellular calcium was followed using Fura-2 fluorescence ratio method. […]

RAW 264.7 cells [6] = experiment: Cell volume regulation in a monocytic cell line (optical sections)
Protocol: We determined cell volume from 0.5 micron image stacks collected at 30 second intervals and calculated the time-dependent volume changes that are shown in FIG. 7B. […] RAW 264.7 cells (American Type Culture Collection, Manassas Va.) were plated into microscope chambers in Dulbeccos Minimal Essential Media with antibiotics and 10% fetal calf serum and allowed to recover over night at 5% CO2. Prior to experiment they were transferred to Hanks buffered saline (10 mM HEPES, pH 7.0) and placed into the thermostated microscope stage (37° C.) and permitted to equilibrate for 10 min. Cell volume was monitored and corrected for changes in cell geometry by optical sections at 0.5 micron steps from the glass surface to the top of the cell (typically 5–7 sections). Images were collected using a Zeiss 100 M Axovert microscope, a 12-bit Sensi-Cam, and analyzed using Slidebook 3.0 (Intelligent Imaging Innovations, Inc. Cambridge, Mass.). Cell volume was calculated by summing the intracellular surface for each image in the stack of sections. […] In FIG. 7B the cellular volume changes were followed by comparing sequential series of z-stacks from optical sections and normalized to total cell volume at the beginning of the experiment (t=0). […] Intracellular calcium was followed using Fura-2 fluorescence ratio method. […] Depolarization dependent increase in cytosolic calcium was initiated by the switch to 100 mM KCl at 200 seconds (open triangle).

In the case of “(C18H37)2NCOCH2OCH2CO-Gly-Gly-Gly-OCH2Ph [(C18H37)2NCOCH2OCH2CO-GGG-OCH2Ph]”, the “reduction of Cl- release” value ([1]; compared with the GGGPGGG compound) is reported as 6 fold.

With “(H37C18)2NCOCH2OCH2CO-Gly-Gly-Gly-Leu-Gly-Gly-Gly-OCH2Ph ({(H37C18)2NCOCH2OCH2CO}-GGGLGGG-OBn) [anchor-GGGLGGG]” the “chloride release / efflux from liposomes” value [1] was “dramatically reduced”.

In the case of “(C18H37)2NCOCH2OCH2CO-Gly-Gly-Gly-Pro-Gly-Gly-Gly-OCH2Ph ({(C18H37)2NCOCH2OCH2CO}-GGGPGGG-OBn; SMILES CCCCCCCCCCCCCCCCCCN(CCCCCCCCCCCCCCCCCC)C(=O)COCC(=O)NCC(=O)NCC(=O)NCC(=O)N1CCC[C@H]1C(=O)NCC(=O)NCC(=O)NCC(=O)OCc1ccccc1) [(C18H37)2NCOCH2OCH2CO-GGGPGGG-OCH2Ph]”, the “reduction in chloride efflux on replacing nitrate by sulfate in the aqueous medium” value ([1]; external SO4 instead of NO3, data not shown) is reported as 5 fold, the “chloride release / efflux from liposomes” value [1] is reported as “rapid, concentration dependent, and went to completion” and the voltage dependent gating ([2]; 60 μM in cis chamber, 450 mM/150 mM KCl gradient, voltage +20 to -2 mV) is reported as “voltage dependent gating”. The “reversal potential, Erev” value ([2]; 450:150 mM KCl ion gradient, calculated chloride Nernst potential 28.2 mV) was 28±0.45 mV, the “maximum conductance (chloride diffusion pathway)” value ([2]; 450:150 mM KCl ion gradient) was 1.3±0.1 nS and the “maximum conductance (chloride diffusion pathway)” value ([2]; 450:150 mM KCl ion gradient, listed as (C18H37)2NCOCH2OCH2CO-GGG-P-GGG-OCH2Ph) was 1.3±0.01 nS. For the same molecule, the “molecules in the active pore” value ([3]; at ~100 μM, inferred) was “two”, the apparent pore diameter ([3]; size-specific dextran block, ~6–26 Å diameter molecules) was 6.6 A and the pore size ([4]; molecular models, conductance data and dextran block taken together) was 6–8 Å. The pore diameter ([4]; suggested by molecular models and bilayer conductance data) was 6.5–8 Å, the “change in cytosolic calcium” value (RAW 264.7 cells [5]) was “small increases” and the cell volume decrease (RAW 264.7 cells [6]; 46 μM added at t=0, normalized to total cell volume at t=0) was 20% and 20±0.5%. For the same molecule, the “extent of cell volume decrease, of the initial cell volume” value (RAW 264.7 cells [6]; 100 μM) was 20–25% and the “effect on cellular volume” value (RAW 264.7 cells [6]; mammalian cells) was “modulates cellular volume”.

With `CC(C)[C@@H]1NC(=O)[C@H](C)OC(=O)[C@@H](C(C)C)NC(=O)[C@@H](C(C)C)OC(=O)[C@H](C(C)C)NC(=O)[C@H](C)OC(=O)[C@@H](C(C)C)NC(=O)[C@@H](C(C)C)OC(=O)[C@H](C(C)C)NC(=O)[C@H](C)OC(=O)[C@@H](C(C)C)NC(=O)[C@@H](C(C)C)OC1=O` [valinomycin, reference compound] the “effect on membrane potential inhibition of net chloride movement” value ([1]; added to liposomes with the channel compound in sulfate medium) was “permitted the remaining chloride to exit the liposomes”.
